Test results reported in patent US6737383B1, “Herbicidal oxadiazolidines” (priority 1999, dated 2004).

How the values were obtained:
[1] = test system: rape; assay: Test B pre/postemergence rape; assay type: in vivo, Brassica napus; conditions: for Rape plant response rating (0 to 10 scale): 0 is no effect
In short: (§1)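 Test chemicals in a non-phytotoxic solvent mixture with surfactant were sprayed preemergence onto planted seeds and postemergence onto plants 2 to 18 cm tall (1- to 4-leaf stage). After twelve to sixteen days in a greenhouse, injury was visually rated against untreated controls from 0 (no effect) to 10 (complete control).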

[2] = test system: blackgrass; assay: Test E blackgrass; assay type: in vivo, Alopecurus myosuroides; conditions: Preemergence
[3] = test system: winter barley; assay: Test E winter barley; assay type: in vivo, Hordeum vulgare; conditions: Preemergence
[4] = test system: winter wheat; assay: Test E winter wheat; assay type: in vivo, Triticum aestivum; conditions: Postemergence
Procedure: […] All plant species were grown using normal greenhouse practices. Crop and weed species include annual bluegrass (Poa annua), blackgrass (Alopecurus myosuroides), black nightshade (Solanum nigra), chickweed (Stellaria media), common poppy (Papaver rhoeas), deadnettle (Lamium amplexicaule), downy brome (Bromus tectorum), field violet (Viola arvensis), galium (Galium aparine), green foxtail (Setaria viridis), Italian ryegrass (Lolium multiflorum), jointed goatgrass (Aegilops cylindrica), kochia (Kochia scoparia), lambsquarters (Chenopodium album), littleseed canarygrass (Phalaris minor), rape (Brassica napus), redroot pigweed (Amaranthus retroflexus), Russian thistle (Salsola kali), scentless chamomile (Matricaria inodora), spring barley (Hordeum vulgare), sugar beet (Beta vulgaris), sunflower (Helianthus annuus), ivyleaf speedwell (Veronica hederaefolia), spring wheat (Triticum aestivum), winter wheat (Triticum aestivum), wild buckwheat (Polygonum convolvulus), wild mustard (Sinapis arvensis), wild oat (Avena fatua), windgrass (Apera spica-venti) and winter barley (Hordeum vulgare).
Treated plants and untreated controls were maintained in a greenhouse for approximately 21 to 28 days, after which all treated plants were compared to untreated controls and visually evaluated. […] A dash response (-) means no test result.

[5] = test system: winter wheat; assay: Test E winter wheat; assay type: in vivo, Triticum aestivum; conditions: Preemergence
[6] = test system: sugar beet; assay: Test B pre/postemergence sugar beet; assay type: in vivo, Beta vulgaris; conditions: for Sugarbeets plant response rating (0 to 10 scale): 0 is no effect
In short: as §1

[7] = test system: green foxtail; assay: Test E green foxtail; assay type: in vivo, Setaria viridis; conditions: Preemergence
[8] = test system: wild oat; assay: Test E wild oat; assay type: in vivo, Avena fatua; conditions: Preemergence
[9] = test system: purple nutsedge; assay: Test B pre/postemergence purple nutsedge; assay type: in vivo, Cyperus rotundus; conditions: for Nutsedge plant response rating (0 to 10 scale): 0 is no effect
In short: as §1

[10] = test system: Italian ryegrass; assay: Test E Italian ryegrass; assay type: in vivo, Lolium multiflorum; conditions: Preemergence
[11] = test system: duck salad; assay: Test B flood test duck salad; assay type: in vivo, Heteranthera limosa
In short: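 Read-out is a visual response score from 0 (no effect) to 10 (complete control), assigned by comparison with untreated controls. Treatment was applied at the 2-leaf stage, and plants stayed in the greenhouse for twelve to sixteen days before scoring.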

[12] = Postemergence, Rate 125 g/ha, scale of 0 to 10 where 0 is no effect and 10 is complete control
[13] = Postemergence, Rate 250 g/ha, scale 0 to 10, 0 no effect, 10 complete control
[14] = Preemergence, Rate 62 g/ha, scale 0 to 10 (0 no effect, 10 complete control)
[15] = Preemergence, Rate 125 g/ha, scale 0 to 10 (0 no effect, 10 complete control)
[16] = Preemergence, Rate 250 g/ha, scale of 0 to 10 where 0 is no effect and 10 is complete control
[17] = Preemergence, Rate 500 g/ha, scale 0 to 10 (0 no effect, 10 complete control)
[18] = Rate 62 g/ha, Postemergence, scale of 0 to 10 where 0 is no effect and 10 is complete control
[19] = Rate 500 g/ha, Postemergence, scale 0 to 10, 0 no effect, 10 complete control
[20] = Rate 500 g/ha, 0 to 100 scale where 0 is no effect and 100 is complete control
[21] = Preemergence, Rate 125 g/ha, 10 is complete control
[22] = Rate 250 g/ha, Postemergence, scale 0 to 10, 0 is no effect, 10 is complete control
[23] = Rate 500 g/ha, headed Pre-emergence (flood test species), scale 0 to 10 (0 no effect, 10 complete control)
[24] = Postemergence, Rate 62 g/ha, scale 0 to 10, 0 is no effect, 10 is complete control
[25] = Preemergence, Rate 500 g/ha, scale 0 (no effect) to 10 (complete control)
[26] = Rate 31 g/ha, 0 to 100 scale, 0 no effect, 100 complete control
[27] = Rate 62 g/ha, 0 to 100 scale, 0 no effect, 100 complete control
[28] = Preemergence, Rate 62 g/ha, scale of 0 to 10 where 0 is no effect and 10 is complete control
[29] = Preemergence, Rate 250 g/ha, scale 0 to 10, 0 is no effect, 10 is complete control
[30] = Preemergence, Rate 500 g/ha, scale of 0 to 10 where 0 is no effect and 10 is complete control
[31] = Rate 125 g/ha, Postemergence, scale 0 to 10
[32] = Rate 500 g/ha, Postemergence, scale 0 to 10

CC(C)N(C(=O)n1oc(=O)n(C(C)(C)C)c1=O)c1ccc(Cl)cc1 [Compound 118]
Rape plant response rating [1, 12]: 0
Rape plant response rating [1, 13]: 0
Rape plant response rating [1, 14]: 0
Plant response rating, Rape [1, 15]: 0
Plant response rating, Rape [1, 16]: 0
Rape plant response rating [1, 17]: 0
Rape plant response rating [1, 18]: 0
Rape plant response rating [1, 19]: 0
Plant response rating, Blackgrass ([2]; Rate 250 g/ha, 0 to 100 scale): 80
Plant response rating, Blackgrass [2, 20]: 100
Plant response rating, Barley (winter) ([3]; Rate 250 g/ha, 0 to 100 scale): 65
Plant response rating, Barley (winter) [3, 20]: 50
Plant response rating, Wheat (winter) ([4]; Rate 250 g/ha, 0 to 100 scale (0 no effect, 100 complete control)): 65
Plant response rating, Wheat (winter) ([4]; Rate 500 g/ha, 0 to 100 scale, 0 no effect, 100 complete control): 70
Plant response rating, Wheat (winter) ([5]; Rate 250 g/ha, 0 to 100 scale): 50
Plant response rating, Wheat (winter) [5, 20]: 70
Sugarbeets plant response rating [6, 12]: 0
Sugarbeets plant response rating [6, 14]: 0
Sugarbeets plant response rating (0 to 10 scale) [6, 21]: 0
Plant response rating, Sugarbeets [6, 16]: 0
Sugarbeets plant response rating [6, 17]: 0
Sugarbeets plant response rating [6, 18]: 0
Plant response rating, Sugarbeets [6, 22]: 0
Sugarbeets plant response rating [6, 19]: 2
Plant response rating, Green foxtail ([7]; Rate 250 g/ha, 0 to 100 scale): 55
Plant response rating, Green foxtail [7, 20]: 65
Plant response rating, Wild oat [8, 20]: 70
Nutsedge plant response rating [9, 12]: 0
Nutsedge plant response rating [9, 13]: 0
Nutsedge plant response rating [9, 14]: 0
Plant response rating, Nutsedge [9, 15]: 0
Plant response rating, Nutsedge [9, 16]: 0
Nutsedge plant response rating [9, 17]: 0
Nutsedge plant response rating [9, 18]: 0
Nutsedge plant response rating [9, 19]: 0
Plant response rating, I. Ryegrass ([10]; Rate 250 g/ha, 0 to 100 scale): 60
Plant response rating, I. Ryegrass [10, 20]: 60
Ducksalad plant response rating ([11]; Rate 250 g/ha, headed Pre-emergence (flood test species), scale 0 to 10 (0 no effect, 10 complete control)): 0
Plant response rating, Ducksalad [11, 23]: 0
Ducksalad plant response rating ([11]; Rate 1000 g/ha, Pre-emergence (as headed), scale 0 to 10): 0
Ducksalad plant response rating ([11]; Rate 2000 g/ha, Pre-emergence (as headed), scale 0 to 10): 0

CCCn1c(=O)on(C(=O)N(c2ccc(F)cc2)C(C)C)c1=O [Compound 91]
Rape plant response rating [1, 24]: 2
Rape plant response rating [1, 12]: 3
Rape plant response rating [1, 13]: 4
Rape plant response rating [1, 14]: 7
Plant response rating, Rape [1, 15]: 8
Plant response rating, Rape [1, 16]: 10
Rape plant response rating [1, 25]: 10
Rape plant response rating [1, 19]: 10
Plant response rating, Blackgrass [2, 26]: 20
Plant response rating, Blackgrass [2, 27]: 60
Plant response rating, Barley (winter) [3, 26]: 20
Plant response rating, Barley (winter) [3, 27]: 40
Plant response rating, Wheat (winter) [4, 26]: 0
Plant response rating, Wheat (winter) ([4]; Rate 62 g/ha, 0 to 100 scale): 10
Plant response rating, Wheat (winter) [5, 26]: 10
Plant response rating, Wheat (winter) [5, 27]: 40
Sugarbeets plant response rating [6, 24]: 3
Sugarbeets plant response rating [6, 12]: 6
Sugarbeets plant response rating [6, 14]: 7
Sugarbeets plant response rating (0 to 10 scale) [6, 21]: 7
Plant response rating, Sugarbeets [6, 16]: 9
Sugarbeets plant response rating [6, 25]: 10
Plant response rating, Sugarbeets [6, 22]: 6
Sugarbeets plant response rating [6, 19]: 6
Plant response rating, Green foxtail [7, 26]: 60
Plant response rating, Green foxtail [7, 27]: 80
Plant response rating, Wild oat [8, 26]: 40
Plant response rating, Wild oat [8, 27]: 60
Nutsedge plant response rating [9, 24]: 0
Nutsedge plant response rating [9, 12]: 0
Nutsedge plant response rating [9, 13]: 0
Nutsedge plant response rating [9, 14]: 0
Plant response rating, Nutsedge [9, 15]: 0
Plant response rating, Nutsedge [9, 16]: 0
Nutsedge plant response rating [9, 19]: 0
Plant response rating, I. Ryegrass [10, 26]: 40
Plant response rating, I. Ryegrass [10, 27]: 40

CCc1cccc(C)c1-n1c(=O)on(C(=O)N(c2ccc(F)cc2)C(C)C)c1=O [Compound 201]
Rape plant response rating [1, 28]: 0
Rape plant response rating (0 to 10 scale) [1, 21]: 0
Rape plant response rating [1, 29]: 0
Rape plant response rating [1, 25]: 0
Plant response rating, Rape [1, 30]: 0
Rape plant response rating [1, 18]: 0
Rape plant response rating [1, 31]: 0
Plant response rating (0 to 10; 0 is no effect, 10 is complete control), Rape ([1]; Rate 250 g/ha, Postemergence): 0
Rape plant response rating [1, 32]: 0
Blackgrass plant response rating (0 to 100 scale) ([2]; Rate 250 g/ha): 30
Plant response rating, Blackgrass [2, 20]: 50
Barley (winter) plant response rating (0 to 100 scale) ([3]; Rate 250 g/ha): 0
Plant response rating, Barley (winter) [3, 20]: 20
Wheat (winter) plant response rating (0 to 100 scale) ([5]; Rate 250 g/ha): 40
Plant response rating, Wheat (winter) [5, 20]: 40
Sugarbeets plant response rating [6, 28]: 0
Sugarbeets plant response rating (0 to 10 scale) [6, 21]: 0
Sugarbeets plant response rating [6, 29]: 0
Sugarbeets plant response rating [6, 25]: 0
Plant response rating, Sugarbeets [6, 30]: 0
Sugarbeets plant response rating [6, 18]: 0
Sugarbeets plant response rating [6, 31]: 0
Plant response rating (0 to 10; 0 is no effect, 10 is complete control), Sugarbeets ([6]; Rate 250 g/ha, Postemergence): 3
Sugarbeets plant response rating [6, 32]: 4
Green foxtail plant response rating (0 to 100 scale) ([7]; Rate 250 g/ha): 50
Plant response rating, Green foxtail [7, 20]: 65
Wild oat plant response rating (0 to 100 scale) ([8]; Rate 250 g/ha): 50
Plant response rating, Wild oat [8, 20]: 40
Nutsedge plant response rating [9, 28]: 0
Nutsedge plant response rating (0 to 10 scale) [9, 21]: 0
Nutsedge plant response rating [9, 25]: 0
Nutsedge plant response rating [9, 18]: 0
Nutsedge plant response rating [9, 31]: 0
Plant response rating (0 to 10; 0 is no effect, 10 is complete control), Nutsedge ([9]; Rate 250 g/ha, Postemergence): 0
Nutsedge plant response rating [9, 32]: 0
I. Ryegrass plant response rating (0 to 100 scale) ([10]; Rate 250 g/ha): 50
Plant response rating, I. Ryegrass [10, 20]: 60
Ducksalad plant response rating ([11]; Rate 62 g/ha, headed Pre-emergence (flood test species), scale 0 to 10 (0 no effect, 10 complete control)): 0
Ducksalad plant response rating ([11]; Rate 125 g/ha, Pre-emergence, flood test species, scale 0 to 10 where 0 is no effect and 10 is complete control): 0
Ducksalad plant response rating ([11]; Rate 250 g/ha, Pre-emergence, flood-test species, scale 0 to 10, 0 is no effect, 10 is complete control): 0
Plant response rating, Ducksalad [11, 23]: 2

CC(C)N(C(=O)n1oc(=O)n(Cc2ccccc2Cl)c1=O)c1ccc(F)cc1 [Compound 140]
Rape plant response rating [1, 12]: 0
Rape plant response rating [1, 14]: 0
Rape plant response rating (0 to 10 scale) [1, 21]: 0
Rape plant response rating [1, 29]: 0
Rape plant response rating [1, 17]: 0
Rape plant response rating [1, 18]: 0
Plant response rating, Rape [1, 22]: 1
Rape plant response rating [1, 32]: 2
Sugarbeets plant response rating [6, 12]: 0
Sugarbeets plant response rating [6, 14]: 0
Sugarbeets plant response rating (0 to 10 scale) [6, 21]: 0
Sugarbeets plant response rating [6, 29]: 0
Sugarbeets plant response rating [6, 17]: 1
Sugarbeets plant response rating [6, 18]: 0
Plant response rating, Sugarbeets [6, 22]: 0
Sugarbeets plant response rating [6, 32]: 0
Nutsedge plant response rating [9, 12]: 0
Nutsedge plant response rating [9, 14]: 0
Nutsedge plant response rating (0 to 10 scale) [9, 21]: 0
Nutsedge plant response rating [9, 29]: 0
Nutsedge plant response rating [9, 17]: 0
Nutsedge plant response rating [9, 18]: 0
Plant response rating, Nutsedge [9, 22]: 0
Nutsedge plant response rating [9, 32]: 0
Ducksalad plant response rating ([11]; Postemergence (flood test species), Rate 125 g/ha, scale of 0 to 10 where 0 is no effect and 10 is complete control): 0
Ducksalad plant response rating ([11]; Rate 62 g/ha, Postemergence section, flood test species, scale of 0 to 10 where 0 is no effect and 10 is complete control): 0
Plant response rating, Ducksalad ([11]; Rate 250 g/ha, Postemergence (flood test), scale 0 to 10, 0 is no effect, 10 is complete control): 0
Ducksalad plant response rating ([11]; Rate 500 g/ha, listed under Postemergence (flood test species), scale 0 to 10): 0
